# Results as given in patent US10072161B2, “Polyamide nanoparticles and uses thereof” (Bar-Ilan University, priority 2014, dated 2018).
# Legend:
# S. aureus [1] = assay: Bacterial killing kinetics in the presence of antioxidants; format: cell-based, Staphylococcus aureus; conditions: 10 mM antioxidant, 1 h pre-incubation
# Description: (§1) Cultures of E. coli and S. aureus bacteria grown overnight were diluted in fresh twofold concentrated LB medium to obtain stock solutions with a final working concentration of 10^5 CFU/ml. […] Bacteria supplemented with distilled water or the various antioxidants served as negative controls. At various time points, 100 μl samples were taken from each tube and transferred into the first row wells of a 96-well plate containing 20 μl of 0.1 N thiosulfate. The latter was added to quench the remaining chlorine on the P(MAA-MBAA)-Cl NPs and NaOCl, thus terminating the sterilization process. Serial dilutions were carried out and the cells spotted onto LB agar plates, which were incubated at 37° C. for 20 h. Cell growth was monitored and determined by a viable cell count.
# E. coli [2] = assay: as above; format: cell-based, Escherichia coli; conditions: 10 mM antioxidant, 1 h pre-incubation
# Description: as §1
# [3] = ESR spin trapping (DMPO) of ROS; conditions: 10 mM antioxidant
# Description: ROS production was detected using the ESR spin trapping technique coupled with a spin trap 5,5-Dimethyl-pyrroline N-oxide (DMPO, Sigma, St. Louis, Mo.). Typically, the aqueous suspensions of NPs were added to DMPO (0.01 M), in the presence of equivalent volumes of either twofold concentrated LB medium, or each of its components (Tryptone, yeast extract, NaCl) or water. […] The solution was drawn into a 0.8 mm ID capillary quartz tube sealed at both ends with a plastic Critoseal (Thermo Fisher Scientific Inc), which was placed into a quartz tube that in turn was placed into the EPR rectangular cavity (ER 4122SHQ). The measurements were taken using a X-band Elexsys E500 EPR spectrometer (Bruker, Karlsruhe, Germany) using the following parameters: microwave power, 20 mW; scan width, 100 G; resolution, 1024; Gain, 60; sweep time, 60 s; # scans, 2; modulation frequency, 100 kHz; modulation amplitude, 1 G. In order to compare the radical intensity, the double integration (DI) of the spin adduct signal was calculated, using the Xepr 2.6b.58 acquisition version.
# S. aureus [4] = assay: Consecutive bacterial loading cycles (hourly, 8 cycles); format: cell-based, Staphylococcus aureus
# Description: (§2) The cell density of E. coli and S. aureus grown overnight was normalized to 2*10^5 cells per milliliter in a twofold concentrated LB medium; then the bacteria were treated for 1 h at 37° C. under agitation (250 rpm) with equivalent volumes of either NaOCl or P(MAA-MBAA)-Cl NPs. Bacteria shaken with water served as a negative control. After 1 h of incubation, aliquots were collected and diluted serially tenfold before spotting onto LB agar plates. After an overnight incubation at 37° C. the colony forming units (CFU) were counted and used to determine cell survival. Immediately after each aliquot was removed, newly prepared bacteria were added for another hour to each of the tubes to achieve a final concentration of 10^5 CFU/ml.
# E. coli [5] = assay: Stability in organic rich media (LB pre-incubation, then bacterial loading); format: cell-based, Escherichia coli
# Description: (§3) 1 ml of either DDW, NaOCl or P(MAA-MBAA)-Cl NPs was mixed with 1 ml of twofold concentrated LB medium and incubated for 3 h, 5 h or 24 h. Then, E. coli or S. aureus were added to each of the solutions, reaching a final concentration of 10^5 CFU/ml and the mixture agitated for either 3 h or 24 h. At the indicated time points, samples were taken for cell viability determination and the solutions were reloaded with freshly prepared bacteria. The experiment was continued until the reagents were no longer capable of evincing toxic effects on the tested bacteria.
# S. aureus [6] = assay: Bacterial killing / killing kinetics, viable cell count (CFU/mL); format: cell-based, Staphylococcus aureus
# Description: (§4) In exemplary procedures, Escherichia coli (E. coli) C600, Staphylococcus aureus (S. aureus) FRF1169, and multi-drug resistant strains E. coli 5327752, Klebsiella pneumoniae 5363271, and Providencia stuartii 5327311 were grown overnight at 37° C. under agitation (250 rpm) in Luria Bertani (LB, Difco) growth medium.
# (§5) In exemplary procedures, overnight cultures of E. coli and S. aureus bacteria were each diluted in a fresh LB medium to obtain stock solutions with a working concentration of 10^5 CFU per mL. Next, E. coli and S. aureus bacteria were grown, […] with equivalent volumes of either NaOCl, P(MAA-MBAA) or P(MAA-MBAA)-Cl nanoparticles (0.2%, 0.75%, and 1% w/v) under continuous agitation (250 rpm). At various time points, 100 μL samples were taken from each tube and transferred into the wells of the first row in a 96-well plate that contained 20 μL of 0.1 N sodium thiosulfate. The latter was added to quench the remaining Cl on the P(MAA-MBAA)-Cl nanoparticles, thus halting the reaction. Serial dilutions were carried out, and the cells were spotted onto LB agar plates, followed by incubation at 37° C. for 20 hours. Cell growth was monitored and determined by viable cell count and expressed as CFU/mL.
# (§6) Cultures of E. coli and S. aureus bacteria grown overnight were diluted in fresh twofold concentrated LB medium to obtain stock solutions with a final working concentration of 10^5 CFU/ml. Then, E. coli and S. aureus bacteria were grown with either P(MAA-MBAA)-Cl NPs or NaOCl under continuous agitation (250 rpm). Bacteria grown with distilled water or P(MAA-MBAA) NPs served as negative controls. At various time points, 100 μl samples were taken from each tube and transferred into the first row wells of a 96-well plate containing 20 μl of 0.1 N thiosulfate. The latter was added to quench the remaining chlorine on the P(MAA-MBAA)-Cl NPs and NaOCl, thus terminating the sterilization process. […] Cell growth was monitored and determined by a viable cell count.
# [7] = test system: Staphylococcus aureus (S. aureus) FRF1169; assay: Minimum inhibitory concentration (MIC) assay in LB, 96-well, OD595; format: cell-based; conditions: 10^5 CFU/mL
# Description: as §4
# (§7) In exemplary procedures, the antimicrobial activity of the P(MAA-MBAA)-Cl nanoparticles was evaluated by determining the minimum inhibitory concentration (MIC) values for both E. coli and S. aureus. The MIC was defined as the lowest Cl concentration bound to the nanoparticles, or the NaOCl, at which no bacterial growth was visible following incubation with the respective bacteria. The stock solution of the P(MAA-MBAA)-Cl nanoparticles and NaOCl were each diluted in two-fold serial dilutions in a 96-well plate (Griener Bio-one) ranging from bound Cl concentrations of 10 to 0.08 mM (approximately corresponding to 0.8% P(MAA-MBAA)-Cl, w/v) in LB medium in a 96-well plate (Greiner Bio-one). Each well contained 10^5 colony-forming units (CFU)/mL of either E. coli or S. aureus, and bacteria were either treated with P(MAA-MBAA) nanoparticles or left untreated to serve as negative controls. The bacterial growth was monitored via absorbance measurements at OD595 utilizing a microplate reader (Synergy 2, BioTek instruments). All experiments were conducted in triplicate.
# [8] = test system: Escherichia coli (E. coli) C600; assay: as above; format: cell-based; conditions: 10^5 CFU/mL
# Description: as §4, §7
# [9] = Kinetics of oxidative chlorine release in LB medium (NaI quenching, 292/350 nm); format: physicochemical; conditions: for % chlorinated: 1 day in LB
# Description: (§8) Equal volumes of NaOCl or P(MAA-MBAA)-Cl NPs were incubated with equivalent volumes of twofold concentrated LB medium. The precise concentration of the oxidative chlorine found on the two reagents was determined at different time intervals via quenching with sodium iodide followed by spectrophotometer (Amersham Bioschiences) measurements at wavelengths of 292 nm and 350 nm, as previously described.
# as §8, with “nm.” for “nm, as previously described.”
# E. coli [10] = assay: Bacterial killing / killing kinetics, viable cell count (CFU/mL); format: cell-based, Escherichia coli
# Description: as §4, §5, §6
# E. coli [11] = assay: Consecutive bacterial loading cycles (hourly, 8 cycles); format: cell-based, Escherichia coli
# Description: as §2
# S. aureus [12] = assay: Stability in organic rich media (LB pre-incubation, then bacterial loading); format: cell-based, Staphylococcus aureus
# Description: as §3
# [13] = pre-incubated for 1 week with LB
# [14] = 10^5 CFU/ml in LB, NPs versus NaOCl
compound,measurement,setting,value
"O=C1O[C@H]([C@@H](O)CO)C(O)=C1O [AA, Ascorbic acid]",effect of antioxidant pre-incubation on killing by the chlorinated NPs,S. aureus [1],abolished the killing properties of the NPs
same,effect of antioxidant pre-incubation on killing by the chlorinated NPs,E. coli [2],abolished the killing properties of the NPs
"CC(=O)N[C@@H](CS)C(=O)O [NAC, N-acetyl cysteine]",effect of antioxidant pre-incubation on killing by the chlorinated NPs,S. aureus [1],abolished the killing properties of the NPs
same,effect of antioxidant pre-incubation on killing by the chlorinated NPs,E. coli [2],abolished the killing properties of the NPs
same,effect on formation of DMPO-OH by P(MAA-MBAA)-Cl NPs with LB,[3],completely abrogated
"OCl [NaOCl, sodium hypochlorite]",bacterial viability after overnight incubation following the eighth loading cycle,S. aureus [4],able to overcome the growth inhibitory affect
same,loading cycle from which no longer able to promote bacterial killing,S. aureus [4],2 cycle
same,effect of pre-incubation with LB on bactericidal activity,E. coli [5]; 3 h pre-incubation,had no impact on their bactericidal activity
same,effect of pre-incubation with LB on bactericidal activity,E. coli [5]; 5 h pre-incubation,growth inhibition
same,time to complete killing,E. coli [5]; 5 h pre-incubation with LB,24 h
same,reduction of bacteria viability,"E. coli [5]; 5 h pre-incubation with LB, 3 h time point",~4 logs
same,effect of pre-incubation with LB on bactericidal activity,E. coli [5]; 24 h pre-incubation,destroyed its antibacterial activity
same,concentration required to kill bacteria,E. coli [5]; [13],0.36 M
same,killing at 0.18 M,E. coli [5]; [13],ineffective
same,bacterial killing,S. aureus [6]; 8 mM oxidative chlorine,Total kill
same,bacterial killing,S. aureus [6]; 11 mM oxidative chlorine,Total kill
same,time to eradication of bacteria,S. aureus [6]; [14],≤ 2 min
same,minimum inhibitory concentration (MIC),[7],5.6 mM oxidative Cl
same,minimum inhibitory concentration (MIC),[8],5.6 mM oxidative Cl
same,NaOCl molecules sequestered by organic substances,[9]; 10 minutes of incubation in LB,~50%
same,% chlorinated,[9]; measured at 292 nm,0.9%
same,% chlorinated,[9]; measured at 350 nm,0.5%
same,bacterial killing,E. coli [10]; 8 mM oxidative chlorine,Total kill
same,bacterial killing,E. coli [10]; 11 mM oxidative chlorine,Total kill
same,time to eradication of bacteria,E. coli [10]; [14],≤ 2 min
same,bacterial viability after overnight incubation following the eighth loading cycle,E. coli [11],no viable E. coli bacteria
same,loading cycle from which no longer able to promote bacterial killing,E. coli [11],4 cycle
same,effect of pre-incubation with LB on bactericidal activity,S. aureus [12]; 3 h pre-incubation,did compromise its bactericidal activity
same,time to complete killing,S. aureus [12]; 3 h pre-incubation with LB,24 h
same,effect of pre-incubation with LB on bactericidal activity,S. aureus [12]; 5 h pre-incubation,growth arrest
same,effect of pre-incubation with LB on bactericidal activity,S. aureus [12]; 24 h pre-incubation,destroyed its antibacterial activity
same,concentration required to kill bacteria,S. aureus [12]; [13],0.36 M
same,killing at 0.18 M,S. aureus [12]; [13],ineffective
